Assay results published in PMC4923153, “Protection of Primary Dopaminergic Midbrain Neurons by GPR139 Agonists Supports Different Mechanisms of MPP^+ and Rotenone Toxicity” (Frontiers in Cellular Neuroscience, 2016).
Values joined by “and” are separate entries in the source; they are usually repeats but may differ in a detail not shown here. Identical values can stand only once. Like-named read-outs stand apart in the source and are kept apart here.

Legend:
[1] = tested on: primary DA midbrain neurons; type: cell-based, mice; conditions: 24 h
Protocol: Experiments were conducted in accordance with the ethical guidelines of H. Lundbeck A/S and the Danish legislation of animal use for scientific procedures. Cell culture was basically performed as described (Nagel et al., [2008]), with few modifications. Briefly, the mesencephalon floor was dissected from embryonic day (E) 13 mice, tissue pieces collected in HBBS, transferred to 0.1% trypsin, 0.05% DNAse (Sigma-Aldrich DN25–1G) and incubated at 37°C in a humidified atmosphere with 5% CO2 for 20 min; washed in DNAse, homogenized and centrifuged at 200× g, resuspended in medium (DMEM (Gibco 41965–039), 10% FCS, 1% P/S (Gibco, 15140–122), l.5% HEPES (Gibco, 15630–056), 1% Sodium Pyruvate (Gibco, 11360–039)) and plated on poly-L-lysine coated 96-well dishes. The medium was switched to neurobasal medium after 90 min (neurobasal (Gibco 21103–049) with 1% P/S, 2% B27 (Gibco, 17504–044), 1.25% 0.5 mM L-glutamine (Gibco, 25030–024)). […] Plates were stored at 4°C until tyrosine-hydroxylase-positive (TH-positive) neurons were counted using a Thermo Scientific Cellomics® ArrayScan® VTI HCS Reader. […] To ensure that only healthy primary cultures were assessed, we furthermore excluded experiments with total cell counts below Mean minus standard deviation (SD) of the summarized experiments. […]

[2] = tested on: differentiated SH-SY5Y neurons; conditions: 24 h incubation; ref Giordano et al., 2012; cited from earlier work
[3] = tested on: primary DA midbrain neurons; experiment: Protection of primary DA midbrain neurons against MPP+ toxicity (TH-positive neuron count); type: cell-based, mice
Protocol: Experiments were conducted in accordance with the ethical guidelines of H. Lundbeck A/S and the Danish legislation of animal use for scientific procedures. Cell culture was basically performed as described (Nagel et al., [2008]), with few modifications. Briefly, the mesencephalon floor was dissected from embryonic day (E) 13 mice, tissue pieces collected in HBBS, transferred to 0.1% trypsin, 0.05% DNAse (Sigma-Aldrich DN25–1G) and incubated at 37°C in a humidified atmosphere with 5% CO2 for 20 min; washed in DNAse, homogenized and centrifuged at 200× g, resuspended in medium (DMEM (Gibco 41965–039), 10% FCS, 1% P/S (Gibco, 15140–122), l.5% HEPES (Gibco, 15630–056), 1% Sodium Pyruvate (Gibco, 11360–039)) and plated on poly-L-lysine coated 96-well dishes. The medium was switched to neurobasal medium after 90 min (neurobasal (Gibco 21103–049) with 1% P/S, 2% B27 (Gibco, 17504–044), 1.25% 0.5 mM L-glutamine (Gibco, 25030–024)). After 6 days in vitro (DIV), cultures were treated with 1 μM of three different GPR139 agonists and in some experiments, concomitantly, with 10 μM of the antagonist for1 h, before exposing them to 0–1 μM MPP^+, 0–50 μM 6-OHDA or 0–100 nM rotenone for 24 h. For the MPP^+ treated cultures, it was also tested whether the effect of the GPR139 agonists could be blocked by concomitantly applying 10 μM GPR139 antagonist (IC50 3 μM). Subsequently, cells were fixed in 4% PFA/PBS for 10 min, washed with PBS, incubated in 0.5% BSA/0.1% Triton-X/5% porcine serum for 20 min, and incubated for 24 h in rabbit anti-tyrosine hydroxylase antibodies (1:1000 in PBS, Millipore AB152); washed 2 × 5 min in PBS. Secondary antibodies (Alexa 488 rabbit) were applied 1:200 in PBS with 0.2 μg/ml Hoechst dye for 1 h and washed 2 × 5 min in PBS. One drop of DAKO fluorescent mounting medium were applied into each well. Plates were stored at 4°C until tyrosine-hydroxylase-positive (TH-positive) neurons were counted using a Thermo Scientific Cellomics® ArrayScan® VTI HCS Reader. Results were normalized against control condition and compared. Experiments were only included in the evaluation if at least 30% cell death was induced at the highest toxin concentration compared to non-treated control wells. To ensure that only healthy primary cultures were assessed, we furthermore excluded experiments with total cell counts below Mean minus standard deviation (SD) of the summarized experiments. […]
To examine whether GPR139 agonists protect against toxin-induced DA cell death, we first treated cultured DA midbrain neurons with the GPR139 agonists and MPP^+ . Subsequently, we determined survival of TH-positive neurons.
Figure 8 Three different GPR139 surrogate agonists protect primary dopaminergic (DA) midbrain neurons against 1-methyl-4-phenyl-pyridinium ionMPP^+ toxicity. […] TH-positive neurons were counted and normalized to numbers under control conditions. […] Each data point is calculated from 12 (0 μM and 1 μM MPP^+ concentrations); 4 (0.125 μM); 7 (0.25 μM); or 8 (0.5 μM) independent measurements.
Primary midbrain cultures were pretreated with the indicated amount of GPR139 agonist compound 3 and with either vehicle ( [drawing 5] ), or 1 μM MPP^+ ( [drawing 6] ); or MPP^+ with 10 μM of the antagonist compound 4 ( [drawing 7] ), or with the antagonist compound 4 alone ( [drawing 8] ). The number of TH-positive neurons was determined 24 h later and normalized to control conditions. […]

[4] = tested on: primary DA midbrain neurons; experiment: Protection of primary DA midbrain neurons against 6-OHDA toxicity (TH-positive neuron count); type: cell-based, mice; conditions: 1 μM agonist 1 h, 0-50 μM 6-OHDA 24 h
Protocol: (§1) Experiments were conducted in accordance with the ethical guidelines of H. Lundbeck A/S and the Danish legislation of animal use for scientific procedures. Cell culture was basically performed as described (Nagel et al., [2008]), with few modifications. […] Plates were stored at 4°C until tyrosine-hydroxylase-positive (TH-positive) neurons were counted using a Thermo Scientific Cellomics® ArrayScan® VTI HCS Reader. […] To ensure that only healthy primary cultures were assessed, we furthermore excluded experiments with total cell counts below Mean minus standard deviation (SD) of the summarized experiments. […]
Neuronal midbrain cultures were pretreated with 1 μM of either one of the agonists compound 1 ( [drawing 9] ), compound 2 ( [drawing 10] ), or compound 3 ( [drawing 11] ), or vehicle ( [drawing 12] ) for 1 h, followed by treatment with the indicated concentrations of 6-hydroxydopamine (6-OHDA) for 24 h. TH-positive neurons were counted and normalized to control numbers.

[5] = tested on: primary DA midbrain neurons; experiment: Protection of primary DA midbrain neurons against rotenone toxicity (TH-positive neuron count); type: cell-based, mice; conditions: 1 μM agonist 1 h, 0-100 nM rotenone 24 h, n = 4
Protocol: as §1
Mesencephalic cultures were treated with 1 μM of either one of the GPR139 agonists compound 1 ( [drawing 13] ), compound 2 ( [drawing 14] ), or compound 3 ( [drawing 15] ), or vehicle ( [drawing 16] ) for 1 h before exposing them to 0–100 nM of rotenone. […] TH-positive neurons were counted and normalized to control numbers (100%).

human GPR139 receptor [6] = molecular target: T1, human GPR139 receptor (Homo sapiens, UniProt Q6DWJ6); set-up: method as in Shi et al., 2011; conditions: Ca2+ mobilization; ref Shi et al., 2011; read-out: EC50 (GPR139 agonist); cited from earlier work
T1 construct: expressed in transfected cells; host or cells: CHO-K1
T1 sequence (Q6DWJ6 1-353): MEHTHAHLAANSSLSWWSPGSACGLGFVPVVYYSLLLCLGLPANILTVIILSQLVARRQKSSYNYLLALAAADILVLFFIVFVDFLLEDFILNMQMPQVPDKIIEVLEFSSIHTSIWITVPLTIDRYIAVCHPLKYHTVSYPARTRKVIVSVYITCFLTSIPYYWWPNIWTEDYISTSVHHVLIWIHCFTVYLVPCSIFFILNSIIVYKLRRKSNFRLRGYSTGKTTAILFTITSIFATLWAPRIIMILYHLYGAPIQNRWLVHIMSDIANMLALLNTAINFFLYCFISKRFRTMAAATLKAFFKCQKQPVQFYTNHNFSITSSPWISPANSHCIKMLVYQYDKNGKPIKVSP

DAT = DAT (Homo sapiens, UniProt Q01959); set-up: method as in Shi et al., 2011; conditions: 10 μM; ref Shi et al., 2011; cited from earlier work
DAT, sequence (Q01959 whole entry, species assumed): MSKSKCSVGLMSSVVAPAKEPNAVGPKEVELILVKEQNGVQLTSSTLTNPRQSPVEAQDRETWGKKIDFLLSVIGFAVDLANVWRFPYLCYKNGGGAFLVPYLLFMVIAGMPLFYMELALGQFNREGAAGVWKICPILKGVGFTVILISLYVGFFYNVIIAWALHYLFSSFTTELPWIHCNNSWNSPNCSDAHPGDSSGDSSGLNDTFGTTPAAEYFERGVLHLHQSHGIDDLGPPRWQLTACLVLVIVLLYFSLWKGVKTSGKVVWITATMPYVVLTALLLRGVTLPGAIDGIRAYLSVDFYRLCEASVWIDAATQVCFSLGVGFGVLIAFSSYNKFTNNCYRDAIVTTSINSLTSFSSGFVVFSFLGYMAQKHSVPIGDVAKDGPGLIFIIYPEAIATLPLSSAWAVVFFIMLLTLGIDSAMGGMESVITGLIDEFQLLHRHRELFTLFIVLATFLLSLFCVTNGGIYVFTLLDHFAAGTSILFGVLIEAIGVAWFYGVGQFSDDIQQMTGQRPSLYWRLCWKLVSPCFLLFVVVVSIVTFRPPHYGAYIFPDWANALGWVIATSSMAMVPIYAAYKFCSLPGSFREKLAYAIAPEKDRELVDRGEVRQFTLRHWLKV

[7] = molecular target: norepinephrine transporter (Homo sapiens, UniProt P23975); set-up: method as in Shi et al., 2011; conditions: 10 μM; ref Shi et al., 2011; cited from earlier work
norepinephrine transporter, sequence (P23975 whole entry, species assumed): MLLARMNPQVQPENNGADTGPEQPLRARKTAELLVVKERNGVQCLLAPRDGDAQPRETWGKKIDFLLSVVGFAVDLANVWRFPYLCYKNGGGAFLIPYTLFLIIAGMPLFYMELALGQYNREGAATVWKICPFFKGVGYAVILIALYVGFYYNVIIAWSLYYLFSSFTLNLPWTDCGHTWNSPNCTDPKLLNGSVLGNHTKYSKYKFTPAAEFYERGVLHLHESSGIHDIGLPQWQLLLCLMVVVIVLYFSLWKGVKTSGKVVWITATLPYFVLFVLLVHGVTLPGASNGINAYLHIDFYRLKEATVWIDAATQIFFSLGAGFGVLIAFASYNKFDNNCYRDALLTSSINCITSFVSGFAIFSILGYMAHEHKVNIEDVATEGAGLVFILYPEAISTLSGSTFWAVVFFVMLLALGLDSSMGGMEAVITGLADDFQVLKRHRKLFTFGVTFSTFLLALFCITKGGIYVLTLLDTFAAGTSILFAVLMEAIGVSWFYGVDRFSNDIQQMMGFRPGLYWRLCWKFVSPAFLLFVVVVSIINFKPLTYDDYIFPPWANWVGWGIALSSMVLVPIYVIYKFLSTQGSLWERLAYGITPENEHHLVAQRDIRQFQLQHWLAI

[8] = set-up: method as in Shi et al., 2011; conditions: ref Shi et al., 2011; cited from earlier work
SH-SY5Y cells = tested on: SH-SY5Y cells; set-up: method as in Song et al., 2012; conditions: ref Song et al., 2012; cited from earlier work
human GPR139 receptor [9] = molecular target: T1, human GPR139 receptor; experiment: GPR139 calcium mobilization assay (CHO-K1 cells stably expressing the receptor); type: cell-based; conditions: inhibition of agonist-induced stimulation (compound 1 at EC85); read-out: IC50 (GPR139 antagonist)
Protocol: EC50 and IC50 for all compounds were determined as described (Shi et al., [2011]).
All compounds were further characterized using GPR139-based Ca^2+ mobilization assays (Figure 5).
Figure 5 Additional characterization of GPR139 compounds using kinetic fluorescence measurements and concentration-response determination in calcium mobilization assays. (A–D) Examples for the kinetic of relative fluorescence units (RFU) for compound 1 and 4 and related controls, involving a two-step addition protocol. (A) Cellular fluorescence response to addition of buffer (approximately at time 0:00 min) and a second addition of buffer at 3:20 min. (B) Cellular fluorescence response to addition of the Ca^2+ ionophore and reference compound for complete release of Ca^2+ from intracellular stores, ionomycin. (C) Cellular response to addition of 10 μM compound 1 at time 0:00. (D) Cellular fluorescence in response to antagonist compound 4 (at 0:00, 50 μM) and addition of agonist compound 1 at EC85 concentration. […]
Standard molecular cloning techniques were used to generate Chinese hamster ovary (CHO-K1) cells stably expressing the human GPR139 receptor. […] Calcium flux was measured using a Hamamatsu FDSS7000 imaging-based plate reader (Hamamatsu Photonics) using 480 nm excitation light and emitted fluorescent light passed through a 525 nm emission filter and detected by a CCD camera. […]

## C=C(C)[C@H]1Cc2c(ccc3c2O[C@@H]2COc4cc(OC)c(OC)cc4[C@@H]2C3=O)O1 [rotenone]
[1]; 100 nM rotenone
  average DA neuronal cell death: 60%
[2]
  concentration giving 50% cell death: 0.005 µM

## COc1cc(OC)cc(C(=O)NNC(=O)Nc2cccc3ccccc23)c1 [compound 1, 2-(3,5-Dimethoxybenzoyl)-N-(1-naphthyl)-hydrazinecarboxamide]
[3]; 1 μM agonist 1 h, 1 μM MPP+ 24 h, p ≤ 0.05 vs vehicle
  protection against MPP+ toxicity: significant
[4]
  protection against 6-OHDA toxicity: do not protect
[5]
  protection against rotenone toxicity: do not protect
Human GPR139 receptor [6]
  EC50: 0.039 µM
DAT
  inhibition of binding to the DAT: 4%
[7]
  inhibition of binding to the norepinephrine transporter: −8%
[8]
  ADME properties for in vivo testing: does not hold the ADME properties necessary for in vivo testing

## NCCc1cc(O)c(O)cc1O [6-OHDA, 6-hydroxydopamine]
[2]
  concentration giving 50% cell death: 100 µM

## COc1ccc(CCc2cc(OC)c(O)c(OC)c2)cc1OC [Chrysotoxine]
SH-SY5Y cells
  antagonism of MPP+ toxicity: could antagonize
  antagonism of rotenone toxicity: not rotenone

## C[n+]1ccc(-c2ccccc2)cc1 [MPP^+, 1-methyl-4-phenylpyridinium]
[1]; 1 μM MPP+
  average DA neuronal cell death: 40%
[2]
  concentration giving 50% cell death: 5000 µM

## Cc1c(CC(Cl)(Cl)Cl)c2c(n1-c1ccc(F)cc1)CCCC2=O [compound 4, 1-(4-Fluoro-phenyl)-2-methyl-3-(2,2,2-trichloro-ethyl)-1,5,6,7-tetrahydro-indol-4-one, reference compound]
Human GPR139 receptor [9]
  IC50: 7.4 µM and 3 µM
[3]; 10 μM antagonist co-applied with agonist, 1 μM MPP+
  effect of antagonist on protection by the agonists against MPP+: blocked the protective effect
[3]; 10 μM antagonist, no MPP+
  effect of antagonist alone on DA cell survival: did not have an effect
